Assay results: patent US8507469B2, “Azetidin compounds suitable for treating disorders that respond to modulation of the serotonin 5-HT6 receptor” (Abbott GmbH & Co. KG, priority 2007, dated 2013)
Structures can show the parent of a compound that is named as a salt.

Key:
h-5-HT6 receptor = molecular target: T1, h-5-HT6 receptor (Homo sapiens, UniProt P50406); experiment: 5-HT6 receptor binding assay (displacement of [3H]-LSD); details: HEK293 membranes, 1 nM [3H]-LSD
T1 construct: expressed in transfected cells
T1 sequence (P50406 whole entry): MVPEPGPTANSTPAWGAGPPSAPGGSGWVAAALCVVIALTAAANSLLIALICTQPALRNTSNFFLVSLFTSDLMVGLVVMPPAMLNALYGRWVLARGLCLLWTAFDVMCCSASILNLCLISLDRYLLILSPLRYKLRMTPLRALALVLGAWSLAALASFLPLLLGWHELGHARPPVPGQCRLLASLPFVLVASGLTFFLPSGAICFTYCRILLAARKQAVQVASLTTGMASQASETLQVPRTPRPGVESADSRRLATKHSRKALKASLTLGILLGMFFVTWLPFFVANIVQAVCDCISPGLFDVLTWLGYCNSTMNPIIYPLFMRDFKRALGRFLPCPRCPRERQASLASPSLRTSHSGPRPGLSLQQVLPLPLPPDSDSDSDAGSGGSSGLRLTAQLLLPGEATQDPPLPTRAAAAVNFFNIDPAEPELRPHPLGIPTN
Method: (§1) Cells from stable clonal cell lines expressing the corresponding receptor (5-HT6, 1-adrenergic, dopamine D2 or histamine H1 receptors) were washed with PBS (w/o Ca^++, Mg^++) and harvested in PBS with 0.02% EDTA. The cells were collected by centrifugation at 500 g for 10 min. at 4° C., washed with PBS and centrifuged (500 g, 10 min. 4° C.). The pellets were stored at −80° C. until use. For membrane preparation, the thawed cell pellet was resuspended in ice-cold sucrose buffer (0.25 M sucrose, 10 mM Hepes (pH 7.4), 1 mM Phenylmethylsulfonyl fluoride (PMSF) in DMSO, […] Pepstatin-A, 3 mM EDTA, 0.025% Bacitracin) and homogenized with a Branson Sonifier W-250 (Settings: Timer 4; Output Control 3; Duty Cycle constant; 2 to 3 cycles). Cell disruption was checked with the aid of a microscope. Remaining unbroken cells were pelleted at 1.000 g for 10 min. at 4° C. The sucrose buffer supernatant was then centrifuged at 60.000 g for 1 h at 4° C. (Beckman Ultrazentrifuge XL 80). The pellet was resuspended in 30 ml ice-cold Tris buffer (20 mM TRIS (pH 7.4), […] Pepstatin A, 0.1 mM PMSF, 3 mM EDTA) by pipetting through a 10 ml serological pipet and centrifuged for 1 h at 4° C. at 60.000 g. A final resuspension was performed in a small volume of ice-cold Tris buffer (see above) by pressing through a serological pipet followed by ultrasonic treatment with a Branson Sonifier W-250 (Settings: Timer 1; Output Control 3; Duty Cycle constant; 1 cycle). Protein concentration was determined (BCA-Kit; Pierce) and aliquots stored at −80° C. or in liquid nitrogen for long-term storage.
(§2) All receptor binding experiments were carried out in the corresponding assay buffer in a total volume of 200 μl in the presence of various concentrations of test compound (10^−5 M to 10^−9 M, tenfold serial dilution, duplicate determinations). The assays were terminated by filtration on polyethylenimine (PEI 0.1% or 0.3%) presoaked Packard Unifilter Plates (GF/C or GF/B) with a Tomtec MachIII U 96well-plate harvester. After the plates had been dried for 2 h at 55° C. in a drying chamber scintillation cocktail (BetaPlate Scint; PerkinElmer) was added. Radioactivity was measured in a Microbeta Trilux two hours after the addition of the scintillation mixture. Data derived from liquid scintillation counting were analysed by iterative non-linear regression analysis with the use of the Statistical Analysis System (SAS): a program similar to “LIGAND” as described by Munson and Rodbard (Analytical Biochemistry 107, 220-239 (1980).
HEK293 cells stably expressing the h-5-HT6 receptor (NCBI Reference Sequence XM 001435) were cultured in RPMI1640 medium supplemented with 25 mM HEPES, 10% fetal calf serum and 1-2 mM glutamine. The membrane preparation was performed as described in section 1. […] Non-specific binding was defined with 1 μM methiothepin. The binding reaction was carried out for 3.5 h at room temperature. During the incubation, the plates were shaken on a plate shaker at 100 rpm and terminated by filtration on Packard Unifilter GF/C (0.1% PEI) plates, followed by 2 wash cycles with ice-cold 50 mM Tris-HCl, 5 mM CaCl2.
(§3) Data derived from liquid scintillation counting were analyzed by iterative non-linear regression analysis with the use of the Statistical Analysis System (SAS): a program similar to “LIGAND” as described by Munson and Rodbard (Anal. Biochem. 1980, 107, 220-239). Fitting was performed according to formulae described by Feldman (Anal. Biochem. 1972, 48, 317-338). IC50, nH and Ki values were expressed as geometrical mean.

dopamine D2 receptor = molecular target: T2, dopamine D2 receptor (Homo sapiens, UniProt P14416); experiment: Dopamine D2 receptor binding assay (displacement of [125I]-iodospiperone); details: for Ki: HEK293 membranes, 0.01 nM [125I]-iodospiperone
T2 construct: expressed in transfected cells
T2 sequence (P14416 whole entry): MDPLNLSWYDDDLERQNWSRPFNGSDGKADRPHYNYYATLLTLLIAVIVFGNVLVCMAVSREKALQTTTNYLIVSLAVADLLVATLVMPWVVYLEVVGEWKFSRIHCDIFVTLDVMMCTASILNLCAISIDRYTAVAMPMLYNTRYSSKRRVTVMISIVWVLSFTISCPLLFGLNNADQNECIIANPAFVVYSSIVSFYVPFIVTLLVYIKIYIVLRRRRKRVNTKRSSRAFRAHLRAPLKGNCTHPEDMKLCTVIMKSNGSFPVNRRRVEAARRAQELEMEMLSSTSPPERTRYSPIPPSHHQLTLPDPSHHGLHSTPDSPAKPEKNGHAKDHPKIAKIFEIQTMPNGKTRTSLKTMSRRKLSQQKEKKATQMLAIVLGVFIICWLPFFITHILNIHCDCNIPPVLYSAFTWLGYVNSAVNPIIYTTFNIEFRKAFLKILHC
Method: as §1, §2
HEK293 cells stably expressing the dopamine D2 receptor (NCBI Reference Sequence NM_000795) were cultured in RPMI1640 medium supplemented with 25 mM HEPES, 10% fetal calf serum and 1-2 mM glutamine. The membrane preparation was performed as described in section 1. […] On the day of the assay, the membranes were thawed, diluted in assay buffer (50 mM Tris-HCl, 120 mM NaCl, 5 mM MgCl2, 5 mM KCl, 1.5 mM CaCl2, pH 7.4) to a concentration of 15 μg protein/assay and homogenized by gentle vortexing. For inhibition studies, 0.01 nM [^125I]-iodospiperone (PerkinElmer Life Sciences, NEX284) was incubated in the presence of various concentrations of test compound in assay buffer. Non-specific binding was defined with 1 μM haloperidol. The binding reaction was carried out for 1 h at room temperature and terminated by filtration on Packard Unifilter GF/B (0.1% PEI) plates, followed by 6 wash cycles with an ice-cold 7% polyethylenglycol solution.
as §3

α1-adrenergic receptor = molecular target: T3, α1-adrenergic receptor (Homo sapiens, UniProt P35348); experiment: α1-adrenergic receptor binding assay (displacement of [3H]-prazosine); details: CHO-K1 membranes, 0.1 nM [3H]-prazosine
T3 construct: expressed in transfected cells
T3 sequence (P35348 1-475 isoform P35348-2): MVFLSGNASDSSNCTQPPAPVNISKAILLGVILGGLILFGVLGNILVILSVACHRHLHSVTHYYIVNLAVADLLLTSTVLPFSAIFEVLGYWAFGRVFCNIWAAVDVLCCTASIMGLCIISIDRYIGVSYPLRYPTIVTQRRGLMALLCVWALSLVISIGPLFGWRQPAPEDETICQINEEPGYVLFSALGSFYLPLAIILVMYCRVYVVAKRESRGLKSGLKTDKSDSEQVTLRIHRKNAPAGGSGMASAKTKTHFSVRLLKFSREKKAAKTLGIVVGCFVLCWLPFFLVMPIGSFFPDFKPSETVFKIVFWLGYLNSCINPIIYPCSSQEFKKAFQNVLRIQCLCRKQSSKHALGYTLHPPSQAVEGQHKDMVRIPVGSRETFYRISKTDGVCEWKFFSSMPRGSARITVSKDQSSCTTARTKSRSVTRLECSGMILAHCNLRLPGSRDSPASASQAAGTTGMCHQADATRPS
Method: as §1, §2
CHO-K1 cells stably expressing the 1-adrenergic receptor (NCBI Reference Sequence NM_033303) were cultured in RPMI1640 medium supplemented with 25 mM HEPES, 10% fetal calf serum and 1-2 mM glutamine. The membrane preparation was performed as described in section 1. […] On the day of the assay, the membranes were thawed, diluted in assay buffer (50 mM Tris-HCl, pH 7.4) to a concentration of 4 μg protein/assay and homogenized by gentle vortexing. […] Non-specific binding was defined with 1 μM phentolamine. The binding reaction was carried out for 1 h at room temperature and terminated by filtration on Packard Unifilter GF/C (0.1% PEI) plates, followed by 3 wash cycles with ice-cold assay buffer.
as §3

histamine H1 receptor = histamine H1 receptor (Homo sapiens, UniProt P35367); experiment: H1 receptor binding assay (displacement of [3H]-pyrilamine); details: CHO-K1 membranes, 1 nM [3H]-pyrilamine
histamine H1 receptor, sequence (P35367 whole entry): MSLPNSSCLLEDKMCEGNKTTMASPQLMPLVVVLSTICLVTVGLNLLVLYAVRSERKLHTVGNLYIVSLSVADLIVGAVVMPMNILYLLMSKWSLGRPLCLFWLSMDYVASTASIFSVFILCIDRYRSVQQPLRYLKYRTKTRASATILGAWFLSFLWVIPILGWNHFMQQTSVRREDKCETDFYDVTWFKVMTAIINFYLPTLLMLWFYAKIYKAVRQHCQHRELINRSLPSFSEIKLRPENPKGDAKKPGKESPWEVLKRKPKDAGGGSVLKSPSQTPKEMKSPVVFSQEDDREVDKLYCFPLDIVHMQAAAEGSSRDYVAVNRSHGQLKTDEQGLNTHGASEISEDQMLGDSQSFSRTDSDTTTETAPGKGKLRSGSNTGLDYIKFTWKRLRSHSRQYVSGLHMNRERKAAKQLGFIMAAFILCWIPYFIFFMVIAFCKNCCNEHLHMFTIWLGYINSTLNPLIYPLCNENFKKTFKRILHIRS
Method: as §1, §2
CHO-K1 cells stably expressing the histamine H1 receptor (Euroscreen-ES-390-C, NCBI Reference Sequence NM_000861) were cultured in RPMI1640 medium supplemented with 25 mM HEPES, 10% fetal calf serum and 1-2 mM glutamine. The membrane preparation was performed as described in section 1. […] On the day of the assay, the membranes were thawed, diluted in assay buffer (50 mM Na2HPO4, 50 mM KH2PO4, pH 7.4) to a concentration of 6 μg protein/assay and homogenized by gentle vortexing. […] The binding reaction was carried out for 50 minutes at room temperature and terminated by filtration on Packard Unifilter GF/C (0.3% PEI) plates, followed by 2 wash cycles with ice-cold assay buffer.
as §3

Row | Molecule | Ki (h-5-HT6 receptor) | Ki (dopamine D2 receptor) | Ki (α1-adrenergic receptor) | Ki (histamine H1 receptor) | Kd (dopamine D2 receptor; saturation binding experiments, HEK293 D2 membranes, read-out: KD of radioligand)
1 | O=S(=O)(c1ccccc1)n1ccc2cc(C3CNC3)ccc21 [compound 2, 5-azetidin-3-yl-1-benzenesulfonyl-1H-indole, hydrochloride] | < 0.005 µM | > 10 µM | > 1 µM | > 10 µM | –
2 | O=S(=O)(c1ccc(-c2cnco2)cc1)n1ccc2cc(C3CNC3)ccc21 [compound 3, 5-azetidin-3-yl-1-(4-oxazol-5-yl-benzenesulfonyl)-1H-indole, hydrochloride] | < 0.25 µM | > 1 µM | – | – | –
3 | CCCN1CC(c2ccc3c(ccn3S(=O)(=O)c3ccc(OC(F)F)cc3)c2)C1 [compound 4, 1-(4-Difluoromethoxy-benzenesulfonyl)-5-(1-propyl-azetidin-3-yl)-1H-indole, hydrochloride] | < 0.05 µM | > 1 µM | > 0.25 µM | – | –
4 | CCCN1CC(c2ccc3c(ccn3S(=O)(=O)c3ccccc3)c2)C1 [compound 5, 1-benzenesulfonyl-5-(1-propylazetidin-3-yl)-1H-indole, hydrochloride] | < 0.005 µM | > 1 µM | > 0.25 µM | > 1 µM | –
5 | CCCN1CC(c2ccc3c(ccn3S(=O)(=O)c3ccc(-c4cnco4)cc3)c2)C1 [compound 6, 1-(4-oxazol-5-yl-benzenesulfonyl)-5-(1-propylazetidin-3-yl)-1H-indole, hydrochloride] | < 0.25 µM | > 1 µM | – | – | –
6 | O=S(=O)(c1ccccc1)N1CCc2cc(C3CNC3)ccc21 [compound 7, 5-azetidin-3-yl-1-benzenesulfonyl-2,3-dihydro-1H-indole, hydrochloride] | < 0.005 µM | > 10 µM | > 1 µM | > 1 µM | –
7 | O=S(=O)(c1ccc(-c2cnco2)cc1)N1CCc2cc(C3CNC3)ccc21 [compound 8, 5-azetidin-3-yl-1-(4-oxazol-5-yl-benzenesulfonyl)-2,3-dihydro-1H-indole] | < 0.25 µM | > 10 µM | – | – | –
8 | O=S(=O)(c1cccc(C(F)(F)F)c1)n1ccc2cc(C3CNC3)ccc21 [compound 19, 5-azetidin-3-yl-1-(3-trifluoromethyl-benzenesulfonyl)-1H-indole, hydrochloride] | < 0.005 µM | > 10 µM | > 1 µM | > 10 µM | –
9 | O=S(=O)(c1cccc(OC(F)(F)F)c1)n1ccc2cc(C3CNC3)ccc21 [compound 20, 5-Azetidin-3-yl-1-(3-trifluoromethoxybenzenesulfonyl)-1H-indole, hydrochloride] | < 0.005 µM | > 1 µM | > 1 µM | > 10 µM | –
10 | O=S(=O)(c1cccc(OC(F)F)c1)n1ccc2cc(C3CNC3)ccc21 [compound 21, 5-Azetidin-3-yl-1-(3-difluoromethoxybenzenesulfonyl)-1H-indole, hydrochloride] | < 0.005 µM | > 1 µM | > 1 µM | > 10 µM | –
11 | O=S(=O)(c1ccccc1OC(F)(F)F)n1ccc2cc(C3CNC3)ccc21 [compound 23, 5-Azetidin-3-yl-1-(2-trifluoromethoxybenzenesulfonyl)-1H-indole] | < 0.005 µM | > 10 µM | > 1 µM | > 1 µM | –
12 | O=S(=O)(c1cccnc1)n1cc(C2CNC2)c2ccccc21 [compound 24, Azetidin-3-yl-1-(pyridine-3-sulfonyl)-1H-indole, hydrochloride] | < 0.01 µM | > 10 µM | – | – | –
13 | CCCN1CC(c2ccc3c(ccn3S(=O)(=O)c3cccc(C(F)(F)F)c3)c2)C1 [compound 25, 5-(1-propyl-azetidin-3-yl)-1-(3-trifluoromethylbenzenesulfonyl)-1H-indole, hydrochloride] | < 0.005 µM | > 1 µM | > 0.25 µM | > 1 µM | –
14 | CCCN1CC(c2ccc3c(ccn3S(=O)(=O)c3cccc(OC(F)(F)F)c3)c2)C1 [compound 26, 5-(1-Propylazetidin-3-yl)-1-(3-trifluoromethoxybenzenesulfonyl)-1H-indole, hydrochloride] | < 0.005 µM | > 1 µM | > 0.25 µM | > 1 µM | –
15 | CCCN1CC(c2ccc3c(ccn3S(=O)(=O)c3cccc(OC(F)F)c3)c2)C1 [compound 27, 5-(1-Propylazetidin-3-yl)-1-(3-difluoromethoxybenzenesulfonyl)-1H-indole, hydrochloride] | < 0.005 µM | > 1 µM | > 0.25 µM | > 1 µM | –
16 | CCN1CC(c2ccc3c(ccn3S(=O)(=O)c3ccccc3)c2)C1 [compound 28, 5-(1-Ethylazetidin-3-yl)-1-benzenesulfonyl-1H-indole, hydrochloride] | < 0.01 µM | > 1 µM | – | – | –
17 | CN1CC(c2ccc3c(ccn3S(=O)(=O)c3ccccc3)c2)C1 [compound 29, 5-(1-Methylazetidin-3-yl)-1-benzenesulfonyl-1H-indole, hydrochloride] | < 0.01 µM | > 1 µM | – | – | –
18 | O=S(=O)(c1cccc(C(F)(F)F)c1)N1CCc2cc(C3CNC3)ccc21 [compound 30, 5-Azetidin-3-yl-1-(3-trifluoromethyl-benzenesulfonyl)-2,3-dihydro-1H-indole, hydrochloride] | < 0.005 µM | > 1 µM | > 1 µM | > 1 µM | –
19 | O=S(=O)(c1ccccc1)n1ccc2cc(C3CNC3)cnc21 [compound 46, 5-Azetidin-3-yl-1-benzenesulfonyl-1H-pyrrolo[2,3-b]pyridine, formic acid salt] | < 0.01 µM | > 10 µM | > 10 µM | > 10 µM | –
20 | iodospiperone [[^125I]-iodospiperone, reference compound] | – | – | – | – | 0.00022 µM
